Experimental data published in patent US7579018B2, “Microbiological control in aqueous systems” (Albemarle Corporation, priority 2000, dated 2009).

How the values were obtained:
planktonic bacteria = test: Cooling tower field test with floater dispenser, Example 5: planktonic plate counts; conditions: substantially continuous dosing from floater, 0.15 to 0.2 ppm of free halogen as Br2
Procedure: Another field test was carried out in the cooling tower described in Example 2 above. In this field test the cooling tower water was substantially continuously dosed with DBDMH using a Rainbow Lifeguard swimming pool floater having a capacity of about 3 lbs of granules, with the slots in the wide open position. This floater, charged with DBDMH granules, was placed and secured in the tower basin, a very convenient location for addition of the biocide when needed. The floater delivered a dose of “free halogen” to maintain a dosage level in the range of 0.15 to 0.2 ppm of free halogen as Br2.
The granules of DBDMH used in Examples 2-5 have an average size in the range of about 40 U.S. standard mesh size to about ⅜-inch, and an average crush strength of at least 15 pounds per inch of thickness. The combination of the low water solubility of DBDMH coupled with its use in granular form provided a slow but continuous or substantially continuous automatic dosing of the cooling tower water so that a biocidally effective level of free bromine was maintained in the water during the entire test, with relatively infrequent refilling of the dispenser being required.

[1] = “free chlorine” (Hach Method 8021) and “total chlorine” (Hach Method 8167) in dosed simulated cooling water, Example 1; type: physicochemical; conditions: for Free Cl2 / Total Cl2 / % hydrolysis to Free Cl2: simulated cooling water pH 9.1, 38° C.
Excerpt: The standard tests for determination of “free chlorine” and “total chlorine” are based on classical test procedures devised by Palin in 1974. See A. T. Palin, “Analytical Control of Water Disinfection With Special Reference to Differential DPD Methods For Chlorine, Chlorine Dioxide, Bromine, Iodine and Ozone”, J. Inst. Water Eng., 1974, 28, 139. While there are various modernized versions of the Palin procedures, the version of the tests for “free chlorine” and “total chlorine” used and to be used as the standard in connection with this invention, are fully described in Hach Water Analysis Handbook, 3rd edition, copyright 1997. The procedure for “free chlorine” is identified in that publication as Method 8021 appearing on page 335, whereas the procedure for “total chlorine” is Method 8167 appearing at page 379. Briefly, the “free chlorine” test involves introducing to the halogenated water a powder comprising DPD indicator powder and a buffer. “Free chlorine” present in the water reacts with the DPD indicator to produce a red to pink coloration. The intensity of the coloration depends upon the concentration of “free chlorine” species present in the sample. This intensity is measured by a calorimeter calibrated to transform the intensity reading into a “free chlorine” value in terms of mg/L Cl2. Similarly, the “total chlorine” test also involves use of DPD indicator and buffer. In this case, KI is present with the DPD and buffer whereby the halogen species present, including nitrogen-combined halogen, reacts with KI to yield iodine species which turn the DPD indicator to red/pink. The intensity of this coloration depends upon the sum of the “free chlorine” species and all other halogen species present in the sample. Consequently, this coloration is transformed by the colorimeter into a “total chlorine” value expressed as mg/L Cl2.
DBDAH and BCDMH Test Procedure • 1. To determine the amount of species present in the water which respond to the “free chlorine” and “total chlorine” tests, the water sample should be analyzed within a few minutes of being taken, and preferably immediately upon being taken. • 2. Hach Method 8021 for testing the amount of species present in the water sample which respond to the “free chlorine” test involves use of the Hach Model DR 2010 calorimeter. The stored program number for chlorine determinations is recalled by keying in “80” on the keyboard, followed by setting the absorbance wavelength to 530 nm by rotating the dial on the side of the instrument. Two identical sample cells are filled to the 10 mL mark with the water under investigation. One of the cells is arbitrarily chosen to be the blank. Using the 10 mL cell riser, this is admitted to the sample compartment of the Hach Model DR 2010, and the shield is closed to prevent stray light effects. Then the ZERO key is depressed. After a few seconds, the display registers 0.00 mg/L Cl2. To second cell, the contents of a DPD Free Chlorine Powder Pillow are added. This is shaken for 10-20 seconds to mix, as the development of a pink-red color indicates the presence of species in the water which respond positively to the DPD test reagent. Within one minute of adding the DPD “free chlorine” reagent to the 10 mL of water in the sample cell, the blank cell used to zero the instrument is removed from the cell compartment of the Hach Model DR 2010 and replaced with the test sample to which the DPD “free chlorine” test reagent was added. The light shield is then closed as was done for the blank, and the READ key is depressed. The result, in mg/L Cl2 is shown on the display within a few seconds. This is the “free chlorine” level of the water sample under investigation. • 3. Hach Method 8167 for testing the amount of species present in the water sample which respond to the “total chlorine” test involves use of the Hach Model DR 2010 calorimeter. […]

[2] = dosed to 1 mg/L as total chlorine, Time 0 hr
[3] = Time 0.5 hr, percentage of Time 0 value
[4] = Time 1 hr, percentage of Time 0 value
[5] = Time 1.5 hr, percentage of Time 0 value
[6] = Time 2 hr, percentage of Time 0 value
[7] = Time 3 hr, percentage of Time 0 value
[8] = Time 4 hr, percentage of Time 0 value
[9] = Time 5 hr, percentage of Time 0 value
[10] = Time 6 hr, percentage of Time 0 value

Compound: CC1(C)C(=O)N(Br)C(=O)N1Br [DBDMH, 1,3-dibromo-5,5-dimethylhydantoin]
- planktonic plate counts (planktonic bacteria): less than 10^4 CFU/mL
- Free Cl2 [1, 2]: 98.8
- Total Cl2 [1, 2]: 100
- % hydrolysis to Free Cl2 ([1]; Time 0 hr): 98.8%
- % hydrolysis to Free Cl2 ([1]; Time 0.5 hr): 95.6%
- Free Cl2 [1, 3]: 100%
- Total Cl2 [1, 3]: 104%
- % hydrolysis to Free Cl2 ([1]; Time 1 hr): 97.3%
- Free Cl2 [1, 4]: 85.1%
- Total Cl2 [1, 4]: 87.3%
- % hydrolysis to Free Cl2 ([1]; Time 1.5 hr): 100%
- Free Cl2 [1, 5]: 87.3%
- Total Cl2 [1, 5]: 87.3%
- % hydrolysis to Free Cl2 ([1]; Time 2 hr): 97.2%
- Free Cl2 [1, 6]: 81.6%
- Total Cl2 [1, 6]: 83.9%
- % hydrolysis to Free Cl2 ([1]; Time 3 hr): 93.8%
- Free Cl2 [1, 7]: 70.1%
- Total Cl2 [1, 7]: 74.7%
- % hydrolysis to Free Cl2 ([1]; Time 4 hr): 93.8%
- Free Cl2 [1, 8]: 65.5%
- Total Cl2 [1, 8]: 66.6%
- % hydrolysis to Free Cl2 ([1]; Time 5 hr): 96.4%
- Free Cl2 [1, 9]: 60.1%
- Total Cl2 [1, 9]: 63.2%
- % hydrolysis to Free Cl2 ([1]; Time 6 hr): 96.3%
- Free Cl2 [1, 10]: 59.8%
- Total Cl2 [1, 10]: 62%
- “total chlorine” level higher than the “free chlorine level” of the water ([1]; water of pH of at least 8 freshly treated): no more than 10%
